Source: patent publication US20240293430A1, “WITHAFERIN A AND IMMUNE CHECKPOINT BLOCKER COMBINATION THERAPIES” (University of South Florida, priority 2023, published 2024)
pIC50: −log10 of the molar value.

How the values were obtained:
[1] = tested on: NSCLC cell lines (LLC, H1650 and A549); test: Cell Titer-Glo cell viability assay; assay type: cell-based, mouse (LLC), human (H1650; details: 48 h, range over LLC
Procedure: FIGS. 1A-lE depict that WFA induces ER stress-mediated apoptosis in NSCLC cell lines. (FIG. 1A) NSCLC cells were plated on 96-well plates and treated with different concentrations of WFA ([…]) in triplicates. Forty-eight hours post-treatment, cell viability was determined using Cell Titer-Glo assay. Luminescence values were normalized to control untreated cells and IC50 values are represented as the mean of two independent experiments ±SEM. (FIG. 1B) NSCLC cells were treated WFA for forty-eight hours, then collected to measure apoptotic cell death using Annexin V assay in LLC cells, H1650 cells, and A549 cells. Percentages of early (annexin*DAPI-) and late (annexin*DAPI+) apoptotic cells are represented as means of two separate experiments ±SEM and statistical significance was calculated using one-way ANOVA and a Fisher LSD post hoc test was used to compare the mean of each group to that of the control group. […] The quantification of western blot band density was performed using Image J software v.1.54d and normalized to housekeeping control protein in LLC cells (0-actin). […]
LLC, H1650, or A549 was plated in 96-well plates and treated with WFA (serialdilutions 10-0.078 μM) in triplicates. […] Forty-eight hours after treatment, cell viability was determined using Cell Titer-Glo assay (Promega, Madison, WI, USA) according to the manufacturer's instructions. […]

[2] = tested on: PARP, BCL-XL, CHOP, p-eIF-2 in NSCLC cell lines; test: Western blot of apoptosis and ER stress markers; assay type: cell-based, mouse (LLC), human (H1650)
Procedure: FIGS. 1A-lE depict that WFA induces ER stress-mediated apoptosis in NSCLC cell lines. (FIG. 1A) NSCLC cells were plated on 96-well plates and treated with different concentrations of WFA ([…]) in triplicates. Forty-eight hours post-treatment, cell viability was determined using Cell Titer-Glo assay. Luminescence values were normalized to control untreated cells and IC50 values are represented as the mean of two independent experiments ±SEM. (FIG. 1B) NSCLC cells were treated WFA for forty-eight hours, then collected to measure apoptotic cell death using Annexin V assay in LLC cells, H1650 cells, and A549 cells. Percentages of early (annexin*DAPI-) and late (annexin*DAPI+) apoptotic cells are represented as means of two separate experiments ±SEM and statistical significance was calculated using one-way ANOVA and a Fisher LSD post hoc test was used to compare the mean of each group to that of the control group. (FIGS. 1C-1D) WFA treated cells were collected in Trizol and total RNA was isolated to measure the levels of Bax (FIG. 1C) and Bcl2 (FIG. 1D) mRNA using qRT-PCR. PCR experiments were repeated at least twice, and one representative experiment is shown as mean±SEM of the technical replicates. (FIG. 1E) Western blot of ER stress markers p-eIF-2 and CHOP was performed using total lysates of WFA-treated LLC cells. The quantification of western blot band density was performed using Image J software v.1.54d and normalized to housekeeping control protein in LLC cells (0-actin). […] Data were obtained from two independent experiments.
FIGS. 7A-7I depict qRT-PCR analysis of the change in expression of pro-apoptotic and anti-apoptotic induced by WFA treatment. WFA increased the mRNA levels of proapoptotic protein Bak-1 in (FIG. 7A) LLC cells and BAD in (FIG. 7C) H1650 cells. […]
Total protein was isolated using Radioimmunoprecipitation Assay (RIPA) buffer (Thermo Fisher Scientific, Waltham, MA, USA) and sonication of cell pellets using Branson digital sonifier 450. […] Then, protein levels were quantified using a Pierce Coomassie Protein assay kit (Thermo Fisher Scientific, Waltham, MA, USA) according to the manufacturer's instruction and the absorbance values at 595 nm were measured using a plate reader (Bio Tek, Winooski, VT, USA) and used to calculate protein concentrations. […] Protein bands were detected using SuperSignal West Pico PLUS Chemiluminescent Substrate or West Femto Maximum Sensitivity Substrate (Thermo Fisher Scientific, Waltham, MA, USA) and imaged using the ChemiDoc XRS imaging system (Bio-Rad, Hercules, CA, USA) according to the manufacturer's instructions. Band density was measured using Image J software version 1.54d and was normalized to housekeeping proteins (0-actin or Vinculin). […]

[3] = tested on: bone marrow-derived DCs co-cultured with WFA-pretreated LLC; details: DC:LLC 5:1, 24 h co-culture, vs untreated LLC
Procedure: Cells were treated with WFA for 48 h then collected using Accutase cell detachment solution. […] (FIG. 2E) Bone marrow-derived DC were co-cultured with WFA-pretreated LLC cells (24 h) in a ratio 5:1 of DC:LLC cells for 24 h. DC activation markers (CD80, CD86, and MHC-II) were examined by flow cytometry. The means of at least 2 independent experiments ±SEM is represented, and one-way ANOVA was used to calculate statistical significance where * denotes p<0.05, ** denote p<0.01, *** denote p<0.001, and **** denote p<0.0001.
Hierarchical gating was used to identify the total cell population followed by single live cells the CD11C+DC. Out of the CD11C population, the expression of DC cell activation markers was determined based on the fluorescence minus one (FMO) controls.
Myeloid progenitor cells were isolated from the femurs of C57BL/6 mice as described previously [37]. The isolated cells were cultured in RMPI media supplemented with GMCSF and refed as necessary. On day 8, the differentiated DCs (loosely attached) were collected, counted, and added to WFA-pretreated LLCs or untreated control LLCs at a ratio of 5:1 of DC: LLC cells. […] Then the samples were acquired using a BD LSR II flow cytometer and the data were analyzed using FlowJo 8.7 software (BD, Franklin Lakes, NJ, USA).

## CC1=C(CO)C(=O)O[C@@H]([C@@H](C)[C@H]2CC[C@H]3[C@@H]4C[C@H]5O[C@]56[C@@H](O)C=CC(=O)[C@]6(C)[C@H]4CC[C@]23C)C1 [WFA, Withaferin A]
[1]
  pIC50: 5.82 to 6.30
[2]; H1650 cells
  levels of BCL-XL: reduced
[2]; LLC and H1650 cells
  PARP cleavage: increased
[2]; LLC cells
  levels of C/EBP homologous protein (CHOP): increases
  phosphorylation of eIF-2: increases
[3]
  DC activation markers CD80, CD86, MHC-II: higher levels
